Read-outs that look alike come from different tables or passages of the source.
How the values were obtained:
[1] = system: KB (human nasopharyngeal carcinoma); assay: Cytotoxicity against KB cell line; type: cell-based
[2] = system: SKOV3 (human ovarian carcinoma); assay: Cytotoxicity against SKOV3 cell line (Table 2); type: cell-based
[3] = system: LoVo (human colon carcinoma); assay: Cytotoxicity against LoVo cell line; type: cell-based
[4] = system: pancreatic ductal adenocarcinoma #03 (Panc 03, P03); conditions: SC P03, 9 IV inj.
[5] = system: murine leukemia (L1210 or P388), murine solid tumor, human solid tumor and low malignancy fibroblast (LML) cells

With `COc1ccc(C[C@H]2NC(=O)C[C@@H](C[C@H](O)[C@H](C)/C=C/c3ccccc3)OC(=O)[C@H](CC(C)C)OC(=O)[C@H](C)CNC2=O)cc1Cl` [Cryptophycin 26] the “KB IC50” value ([1]; Table 2) was 19 ng/mL, the “SKOV3 IC50” value [2] was 95 ng/mL and the “LoVo IC50” value ([3]; Table 2) was 9.8 ng/mL.
With `CC(C)C[C@@H]1OC(=O)[C@H](C)CNC(=O)[C@@H](Cc2ccc(O)c(Cl)c2)NC(=O)/C=C/C[C@@H]([C@H](C)[C@H]2O[C@@H]2c2ccccc2)OC1=O` [Cryptophycin 16] the “KB IC50” value ([1]; Table 2) was 0.08 ng/mL, the “SKOV3 IC50” value [2] was 0.64 ng/mL and the “% Body Wt. Loss at Nadir” value ([4]; Exp 1878, 82 mg/kg TD) was -1%. The Cures ([4]; Exp 1878, 82 mg/kg TD) was 0/5, the “Log Kill” value ([4]; Exp 1878, 82 mg/kg TD) was “None” and the T/C ([4]; Exp 1878, 82 mg/kg TD) was 89%.
`COC(=O)[C@H](C)CNC(=O)[C@@H](Cc1ccc(OC)c(Cl)c1)NC(=O)/C=C/C[C@H](OC(=O)[C@@H](O)CC(C)C)[C@H](C)[C@H]1O[C@@H]1c1ccccc1` [Cryptophycin 5] was tested, and the “KB IC50” value ([1]; Table 1) was 0.02 ng/mL, the “KB IC50” value ([1]; Table 2) was 12 ng/mL and the “SKOV3 IC50” value [2] was 7.4 ng/mL.
In the case of `COc1c(Cl)cc(C[C@H]2NC(=O)/C=C/C[C@@H]([C@H](C)[C@H]3O[C@@H]3c3ccccc3)OC(=O)[C@H](CC(C)C)OC(=O)[C@H](C)CNC2=O)cc1Cl` [Cryptophycin 31], the “KB IC50” value ([1]; Table 2) is reported as 0.53 ng/mL, the “SKOV3 IC50” value [2] is reported as 1.9 ng/mL and the “LoVo IC50” value ([3]; Table 2) is reported as 0.062 ng/mL.
In the case of `COc1ccc(C[C@H]2NC(=O)/C=C/C[C@@H]([C@H](C)[C@H]3O[C@@H]3c3ccccc3)OC(=O)[C@H](CC(C)C)OC(=O)CCNC2=O)cc1` [Cryptophycin 24], the “KB IC50” value ([1]; Table 2) is reported as 0.12 ng/mL, the “SKOV3 IC50” value [2] is reported as 0.3 ng/mL and the “LoVo IC50” value ([3]; Table 2) is reported as 0.095 ng/mL.
For `COc1ccc(C[C@H]2NC(=O)/C=C/C[C@@H](C/C=C/c3ccccc3)OC(=O)[C@H](CC(C)C)OC(=O)[C@H](C)CNC2=O)cc1Cl` [Cryptophycin 28], the “KB IC50” value ([1]; Table 2) was 1.5 ng/mL, the “SKOV3 IC50” value [2] was 6.1 ng/mL and the “LoVo IC50” value ([3]; Table 2) was 0.75 ng/mL.
With `COc1ccc(C[C@@H](NC(=O)/C=C/C[C@@H]2O[C@@H](c3ccccc3)[C@H](O)[C@H]2C)C(=O)NC[C@@H](C)C(=O)O)cc1Cl` [Cryptophycin 12] the “KB IC50” value ([1]; Table 1) was at least 100 ng/mL, the “KB IC50” value ([1]; Table 2) was 18 ng/mL and the “LoVo IC50” value ([3]; Table 1) was at least 100 ng/mL.
With `COc1ccc(C[C@H]2NC(=O)/C=C/C[C@@H]([C@H](C)/C=C/c3ccccc3)OC(=O)[C@H](CC(C)C)OC(=O)CCNC2=O)cc1Cl` [Cryptophycin 29] the “SKOV3 IC50” value [2] was 3.4 ng/mL and the “LoVo IC50” value ([3]; Table 2) was 0.49 ng/mL.
`COc1ccc(C[C@H]2NC(=O)/C=C/C[C@@H]([C@H](C)[C@H]3O[C@@H]3c3ccccc3)OC(=O)[C@H](CC(C)C)OC(=O)CCNC2=O)cc1Cl` [Cryptophycin 21] was tested, and the “SKOV3 IC50” value [2] was 0.029 ng/mL, the “% Body Wt. Loss at Nadir” value ([4]; Exp 1813, 27 mg/kg TD) was -11% and the Cures ([4]; Exp 1813, 27 mg/kg TD) was 0/5. The “Log Kill” value ([4]; Exp 1813, 27 mg/kg TD) was “None”, the T/C ([4]; Exp 1813, 27 mg/kg TD) was 61% and the “dead (animals)” value ([4]; Exp 1813, 27 mg/kg TD) was 1/5. The “LoVo IC50” value ([3]; Table 2) was 0.0003 ng/mL.
`COc1ccc(C[C@@H](NC(=O)/C=C/C[C@H](O)[C@H](C)/C=C/c2ccccc2)C(=O)NC[C@@H](C)C(=O)O)cc1Cl` [Cryptophycin 14] was tested, and the “KB IC50” value ([1]; Table 1) was 1.8 ng/mL.
`COc1ccc(C[C@H]2NC(=O)/C=C/C[C@@H]([C@H](C)[C@@H](O)[C@@H](OC)c3ccccc3)OC(=O)[C@H](CC(C)C)OC(=O)[C@H](C)CNC2=O)cc1Cl` [Cryptophycin 9] was tested, and the “KB IC50” value ([1]; Table 1) was 15 ng/mL.
In the case of `COc1ccc(C[C@H]2NC(=O)C[C@H](O)C[C@@H]([C@H](C)/C=C/c3ccccc3)OC(=O)[C@H](CC(C)C)OC(=O)[C@H](C)CNC2=O)cc1Cl` [Cryptophycin 30], the “KB IC50” value ([1]; Table 2) is reported as 11 ng/mL.
`COc1ccc(C[C@H]2NC(=O)/C=C/C[C@@H](C[C@H]3O[C@@H]3c3ccccc3)OC(=O)[C@H](CC(C)C)OC(=O)[C@H](C)CNC2=O)cc1Cl` [Cryptophycin 40] was tested, and the “KB IC50” value ([1]; Table 2) was 9.0 ng/mL and the “LoVo IC50” value ([3]; Table 2) was 1.0 ng/mL.
`COc1ccc(C[C@H]2NC(=O)/C=C/C[C@@H]([C@H](C)/C=C/c3ccccc3)OC(=O)[C@H](C(C)C)OC(=O)[C@H](C)CNC2=O)cc1Cl` [Cryptophycin 19] was tested, and the “KB IC50” value ([1]; Table 2) was 9.8 ng/mL and the “SKOV3 IC50” value [2] was 41 ng/mL.
`CC[C@H](C)[C@@H]1OC(=O)[C@H](C)CNC(=O)[C@@H](Cc2ccc(OC)c(Cl)c2)NC(=O)/C=C/C[C@@H]([C@H](C)[C@H]2O[C@@H]2c2ccccc2)OC1=O` [Cryptophycin 54] was tested, and the “KB IC50” value ([1]; Table 2) was 0.80 ng/mL, the “SKOV3 IC50” value [2] was 2.2 ng/mL and the “LoVo IC50” value ([3]; Table 2) was 2.2 ng/mL.
With `CC(C)C[C@@H]1OC(=O)[C@H](C)CNC(=O)[C@@H](Cc2ccc(O)c(Cl)c2)NC(=O)/C=C/C[C@@H]([C@H](C)/C=C/c2ccccc2)OC1=O` [Cryptophycin 17] the “KB IC50” value ([1]; Table 2) was 4.7 ng/mL, the “SKOV3 IC50” value [2] was 11 ng/mL and the “LoVo IC50” value ([3]; Table 2) was 5.9 ng/mL.
In the case of `COc1ccc(C[C@H]2NC(=O)/C=C/C[C@@H]([C@H](C)[C@H]3O[C@@H]3c3ccccc3)OC(=O)[C@H](CC(C)C)OC(=O)[C@H](C)CNC2=O)cc1` [Cryptophycin 2], the “Differential in Zone Units, Corbett Assay” value ([5]; 25 μg/disk) is reported as over 400 zone units, the “Type of Cytotoxicity, Corbett Assay” value ([5]; 25 μg/disk) is reported as “E/T” and the “SKOV3 IC50” value [2] is reported as 0.18 ng/mL. For the same compound, the “LoVo IC50” value ([3]; Table 1) was 0.0002 ng/mL and the “LoVo IC50” value ([3]; Table 2) was 0.021 ng/mL.
For `COc1ccc(C[C@@H](NC(=O)/C=C/C[C@@H]2O[C@@H](c3ccccc3)[C@H](O)[C@H]2C)C(=O)O)cc1Cl` [Cryptophycin 7], the “KB IC50” value ([1]; Table 1) was at least 750 ng/mL and the “LoVo IC50” value ([3]; Table 1) was at least 480 ng/mL.
In the case of `CC[C@H](C)[C@@H]1OC(=O)[C@H](C)CNC(=O)[C@@H](Cc2ccc(OC)c(Cl)c2)NC(=O)/C=C/C[C@@H]([C@H](C)/C=C/c2ccccc2)OC1=O` [Cryptophycin 18], the “SKOV3 IC50” value [2] is reported as 23 ng/mL and the “LoVo IC50” value ([3]; Table 2) is reported as 4.5 ng/mL.
For `COc1ccc(C[C@H]2NC(=O)/C=C/C[C@@H]([C@H](C)/C=C/c3ccccc3)OC(=O)[C@H](CC(C)C)OC(=O)[C@H](C)CNC2=O)cc1` [Cryptophycin 4], the “Differential in Zone Units, Corbett Assay” value ([5]; 20 μg/disk) was over 400 zone units, the “Type of Cytotoxicity, Corbett Assay” value ([5]; 20 μg/disk) was “E/T” and the “KB IC50” value ([1]; Table 1) was 1.3 ng/mL. For the same compound, the “SKOV3 IC50” value [2] was 21 ng/mL and the “LoVo IC50” value ([3]; Table 2) was 2.5 ng/mL.
With `COc1ccc(C[C@H]2NC(=O)CCC[C@@H]([C@H](C)[C@H]3O[C@@H]3c3ccccc3)OC(=O)[C@H](CC(C)C)OC(=O)[C@H](C)CNC2=O)cc1Cl` [Cryptophycin 35] the “KB IC50” value ([1]; Table 2) was 0.055 ng/mL and the “SKOV3 IC50” value [2] was 0.092 ng/mL.

— patent publication US5952298A, “Cryptophycins” (priority 1995, dated 1999)
